Results taken from patent publication US11661440B2 (priority 2015, dated 2023).
Ends that are not written are not given here.

Tests used:
[1] = target: NR1a/NR2A (GluN1-a/GluN2A) recombinant NMDA receptor (Rattus norvegicus, UniProt Q00959); assay type: cell-based
NMDA receptor = assay type: cell-based, rat
[2] = target: NR1a/NR2B (GluN1-a/GluN2B) recombinant NMDA receptor (Rattus norvegicus, UniProt Q00960); assay type: cell-based
Chain of NR1a/NR2B (GluN1-a/GluN2B) recombinant NMDA receptor (Q00960 whole entry, looked up): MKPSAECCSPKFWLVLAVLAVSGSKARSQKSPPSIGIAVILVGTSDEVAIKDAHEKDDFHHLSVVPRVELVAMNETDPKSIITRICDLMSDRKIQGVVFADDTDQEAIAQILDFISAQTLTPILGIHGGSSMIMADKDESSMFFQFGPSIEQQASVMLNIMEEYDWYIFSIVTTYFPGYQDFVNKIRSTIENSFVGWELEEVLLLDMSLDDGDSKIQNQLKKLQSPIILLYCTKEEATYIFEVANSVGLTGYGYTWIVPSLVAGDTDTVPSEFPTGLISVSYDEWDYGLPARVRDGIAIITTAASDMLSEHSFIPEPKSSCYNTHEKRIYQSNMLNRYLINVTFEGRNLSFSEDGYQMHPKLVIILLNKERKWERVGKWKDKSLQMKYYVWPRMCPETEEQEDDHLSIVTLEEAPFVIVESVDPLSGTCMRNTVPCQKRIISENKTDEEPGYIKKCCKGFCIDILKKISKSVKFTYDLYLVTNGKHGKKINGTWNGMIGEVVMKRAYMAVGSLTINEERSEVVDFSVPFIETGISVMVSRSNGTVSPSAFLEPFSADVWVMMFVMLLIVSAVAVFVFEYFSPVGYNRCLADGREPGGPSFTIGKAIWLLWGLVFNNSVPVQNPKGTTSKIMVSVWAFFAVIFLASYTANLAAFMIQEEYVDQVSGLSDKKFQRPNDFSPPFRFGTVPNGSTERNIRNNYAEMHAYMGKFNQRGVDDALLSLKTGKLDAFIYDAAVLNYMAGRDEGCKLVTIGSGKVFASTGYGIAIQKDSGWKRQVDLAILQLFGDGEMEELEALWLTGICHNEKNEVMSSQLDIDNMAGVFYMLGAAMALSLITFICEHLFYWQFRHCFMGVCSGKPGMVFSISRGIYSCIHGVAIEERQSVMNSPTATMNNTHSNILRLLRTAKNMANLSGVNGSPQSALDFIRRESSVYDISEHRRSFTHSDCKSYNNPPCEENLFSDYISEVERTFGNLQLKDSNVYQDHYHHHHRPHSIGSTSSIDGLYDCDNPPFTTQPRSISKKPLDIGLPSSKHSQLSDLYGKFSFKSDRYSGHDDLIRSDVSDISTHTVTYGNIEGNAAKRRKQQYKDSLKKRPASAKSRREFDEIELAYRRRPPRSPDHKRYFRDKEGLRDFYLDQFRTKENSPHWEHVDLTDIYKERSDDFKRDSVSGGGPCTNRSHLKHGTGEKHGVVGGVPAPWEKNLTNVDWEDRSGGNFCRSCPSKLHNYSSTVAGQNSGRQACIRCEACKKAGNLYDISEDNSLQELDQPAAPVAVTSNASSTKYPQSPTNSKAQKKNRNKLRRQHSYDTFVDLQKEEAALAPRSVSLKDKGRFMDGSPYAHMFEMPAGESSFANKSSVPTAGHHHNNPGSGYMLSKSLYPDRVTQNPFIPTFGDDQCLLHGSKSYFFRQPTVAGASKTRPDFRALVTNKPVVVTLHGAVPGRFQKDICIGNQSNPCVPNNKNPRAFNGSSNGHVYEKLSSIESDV

Chain of NR1a/NR2A (GluN1-a/GluN2A) recombinant NMDA receptor (Q00959 whole entry, looked up): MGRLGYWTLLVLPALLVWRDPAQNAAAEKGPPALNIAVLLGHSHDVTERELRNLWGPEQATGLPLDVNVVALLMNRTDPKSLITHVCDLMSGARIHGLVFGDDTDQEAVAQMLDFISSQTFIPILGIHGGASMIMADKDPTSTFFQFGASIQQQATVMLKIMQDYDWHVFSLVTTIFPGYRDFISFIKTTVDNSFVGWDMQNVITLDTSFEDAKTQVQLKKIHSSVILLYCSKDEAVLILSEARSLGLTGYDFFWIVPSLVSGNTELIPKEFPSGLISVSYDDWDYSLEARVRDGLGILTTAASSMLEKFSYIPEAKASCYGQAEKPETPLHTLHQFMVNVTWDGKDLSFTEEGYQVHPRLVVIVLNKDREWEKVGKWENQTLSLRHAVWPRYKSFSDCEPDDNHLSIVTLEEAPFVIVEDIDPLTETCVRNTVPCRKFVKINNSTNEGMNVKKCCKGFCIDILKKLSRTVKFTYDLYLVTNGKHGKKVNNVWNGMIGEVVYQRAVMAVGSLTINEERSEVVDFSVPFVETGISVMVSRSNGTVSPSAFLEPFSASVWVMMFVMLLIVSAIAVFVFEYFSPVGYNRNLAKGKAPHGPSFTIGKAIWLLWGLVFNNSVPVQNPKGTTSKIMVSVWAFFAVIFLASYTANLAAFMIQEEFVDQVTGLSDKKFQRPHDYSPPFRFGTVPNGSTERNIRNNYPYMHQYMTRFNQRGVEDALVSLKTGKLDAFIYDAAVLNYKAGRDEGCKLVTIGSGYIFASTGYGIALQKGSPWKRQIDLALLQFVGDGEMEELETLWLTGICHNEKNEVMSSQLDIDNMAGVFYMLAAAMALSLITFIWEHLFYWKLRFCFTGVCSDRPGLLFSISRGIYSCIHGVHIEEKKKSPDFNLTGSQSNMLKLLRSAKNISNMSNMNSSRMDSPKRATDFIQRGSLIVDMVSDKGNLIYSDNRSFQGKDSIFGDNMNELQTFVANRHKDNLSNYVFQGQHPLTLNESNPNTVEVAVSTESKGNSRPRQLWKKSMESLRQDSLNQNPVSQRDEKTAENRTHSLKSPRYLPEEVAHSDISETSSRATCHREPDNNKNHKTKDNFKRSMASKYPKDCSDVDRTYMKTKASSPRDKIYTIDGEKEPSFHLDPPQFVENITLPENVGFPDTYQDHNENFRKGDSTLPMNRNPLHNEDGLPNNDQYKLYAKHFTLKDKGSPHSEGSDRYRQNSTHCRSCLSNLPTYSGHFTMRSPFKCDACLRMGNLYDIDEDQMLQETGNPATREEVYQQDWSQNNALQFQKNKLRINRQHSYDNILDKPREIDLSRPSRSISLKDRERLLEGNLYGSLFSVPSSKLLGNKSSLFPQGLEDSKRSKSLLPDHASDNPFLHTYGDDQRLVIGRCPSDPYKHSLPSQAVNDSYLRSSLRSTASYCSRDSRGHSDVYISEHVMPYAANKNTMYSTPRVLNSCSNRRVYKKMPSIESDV

## GEDDLQDNQDLIRDKSN [SEQ ID NO: 2]
[1]
  reduction of evoked current (in words): slight reduction in current
NMDA receptor
  inhibition in some registers: ~40%
NMDA receptor; read-out: IC50 for inhibition of NMDA receptor-evoked current (dose-response curve)
  IC50: 202 µM
[2]
  blocking of evoked current (in words): Almost total blocking of the current
  selectivity between GluN2B and GluN2A subunits (in words): selectivity for subunit GluN2B rather than GluN2A
